# Experimental data published in PubChem BioAssay (NCI).
#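 Five compound concentrations were applied to cells in 96-well plates for 48 hours; endpoints were derived by simple linear interpolation of the resulting dose-response curve. TGI: total growth inhibition.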
# Assays:
# Assay in all cases: inhibition of tumour cell growth, NCI panel, 48 h
# CCRF-CEM leukemia = tested on: CCRF-CEM leukemia
# NCI-H460 lung = tested on: NCI-H460 lung
# OVCAR-8 ovarian = tested on: OVCAR-8 ovarian
# MDA-N = tested on: MDA-N
# OVCAR-3 ovarian = tested on: OVCAR-3 ovarian
# RXF 393 renal = tested on: RXF 393 renal
# UACC-62 melanoma = tested on: UACC-62 melanoma
# MDA-MB-231 breast = tested on: MDA-MB-231 breast
# SK-MEL-28 melanoma = tested on: SK-MEL-28 melanoma
# SF-268 CNS = tested on: SF-268 CNS
Compound,TGI (CCRF-CEM leukemia),TGI (NCI-H460 lung),TGI (OVCAR-8 ovarian),TGI (MDA-N),TGI (OVCAR-3 ovarian),TGI (RXF 393 renal),TGI (UACC-62 melanoma),TGI (MDA-MB-231 breast),TGI (SK-MEL-28 melanoma),TGI (SF-268 CNS)
N#Cc1sc2c(c1OC(=O)c1ccc(C(F)(F)F)cc1)c(=O)n(-c1ccccc1)c(=S)n2-c1ccccc1,36.7 µM,> 100 µM,> 100 µM,> 100 µM,55.5 µM,61.7 µM,50.9 µM,> 100 µM,> 100 µM,> 100 µM
C=CCn1c(=O)ccn(/C(=C/C(=O)OCC)C(=O)OCC)c1=O,6.04 µM,34 µM,31.5 µM,31.3 µM,18.2 µM,28.5 µM,29.7 µM,26 µM,30.6 µM,42.1 µM
COc1ccc(/C=N/NC(=O)c2ccc(O)c(CN(C)C)c2)cc1,> 100 µM,> 100 µM,> 100 µM,> 100 µM,> 100 µM,> 100 µM,> 100 µM,> 100 µM,> 100 µM,> 100 µM
CO/N=C(/C(=O)OC)c1ccccc1COc1ccccc1C(F)(F)F,> 100 µM,> 100 µM,> 100 µM,> 100 µM,> 100 µM,> 100 µM,> 100 µM,> 100 µM,> 100 µM,> 100 µM
CCc1n[nH]c(=O)n1-c1ccc2ccccc2c1,> 100 µM,> 100 µM,> 100 µM,> 100 µM,> 100 µM,> 100 µM,> 100 µM,> 100 µM,> 100 µM,> 100 µM
COC1OC2COC(c3ccccc3)OC2C(O)C1OC(=S)c1ccccc1 (stereo not given),48.5 µM,> 100 µM,> 100 µM,80.9 µM,> 100 µM,> 100 µM,> 100 µM,> 100 µM,> 100 µM,> 100 µM
CCOC(=O)CC/C(=N/Nc1ccc(Cl)cc1[N+](=O)[O-])C(=O)OCC,> 100 µM,> 100 µM,> 100 µM,> 100 µM,> 100 µM,> 100 µM,> 100 µM,> 100 µM,> 100 µM,> 100 µM
O=C(c1ccccc1)c1ccc2c(c1)NC(=O)c1ccccc1SSc1ccccc1C(=O)N2,> 100 µM,> 100 µM,> 100 µM,> 100 µM,> 100 µM,> 100 µM,> 100 µM,> 100 µM,> 100 µM,> 100 µM
COc1cc2c(cc1OCCCN1C(=O)c3cccc4cccc(c34)C1=O)N=C[C@@H]1CCCN1C2=O,22.2 µM,> 100 µM,> 100 µM,> 100 µM,> 85.1 µM,34.2 µM,> 100 µM,> 100 µM,> 100 µM,> 100 µM
CC1OC(O[C@H]2C3C=CO[C@@H](OC4OC(CO)C(O)C(O)C4O)C3[C@@]3(COC(=O)/C=C/c4ccccc4)O[C@@H]23)C(O)C(O)C1O (stereo not given in full),> 100 µM,> 100 µM,> 100 µM,> 100 µM,> 100 µM,> 100 µM,> 100 µM,> 100 µM,> 100 µM,> 100 µM
COc1cccc2c1OC(c1cccc3ccccc13)C([N+](=O)[O-])=C2 (stereo not given),2.02 µM,3.77 µM,20.9 µM,10.3 µM,2.74 µM,2.58 µM,2.35 µM,5.01 µM,2.87 µM,13.3 µM
COC(=O)c1ccccc1CC1Cc2cccc(C)c2C1=O (stereo not given),> 100 µM,> 100 µM,> 100 µM,> 100 µM,> 100 µM,63.7 µM,98.1 µM,> 100 µM,94.5 µM,> 100 µM
O=C(O)C(O)C(O)C(O)C(O)CO (stereo not given),> 100 µM,> 100 µM,> 100 µM,> 100 µM,> 100 µM,> 100 µM,> 100 µM,> 100 µM,> 100 µM,> 100 µM
OC(C#CCN1CCCC1)(c1ccccc1)c1ccccc1Cl (stereo not given),> 100 µM,41.5 µM,> 100 µM,50.9 µM,> 100 µM,> 100 µM,57.5 µM,> 100 µM,32.2 µM,> 100 µM
C=C(C)CNCCN,> 100 µM,> 100 µM,> 100 µM,> 100 µM,> 100 µM,> 100 µM,> 100 µM,> 100 µM,> 100 µM,> 100 µM
CC1=C(C#N)c2nc3ccccc3n2C(=O)C1(C)CCO (stereo not given),> 100 µM,> 100 µM,> 100 µM,> 100 µM,> 100 µM,> 100 µM,> 100 µM,> 100 µM,> 100 µM,> 100 µM
CC1(C)C=CC(=O)C(O)C(C)(C)C1=O (stereo not given),3.63 µM,> 100 µM,> 100 µM,> 100 µM,79.6 µM,> 100 µM,> 100 µM,> 100 µM,> 100 µM,> 100 µM
CC(C)N1CCN(c2ccc(OCC3COC(Cn4cncn4)(c4ccc(Cl)cc4Cl)O3)cc2)CC1 (stereo not given),32.5 µM,31.3 µM,39.2 µM,16.6 µM,31 µM,25 µM,5.66 µM,28.5 µM,12.3 µM,28.8 µM
C/C1=C\[C@H](C)C[C@H](C)OC(=O)[C@H](C)NC(=O)[C@@H](Cc2ccc(O)c(Br)c2)N(C)C(=O)[C@H](C)NC(=O)[C@@H](C)C1,> 10.3 µM,> 19.5 µM,> 7.69 µM,> 25 µM,3.84 µM,0.858 µM,> 25 µM,0.518 µM,> 10.6 µM,1.57 µM

Compound,TGI (CCRF-CEM leukemia),TGI (NCI-H460 lung),TGI (OVCAR-8 ovarian),TGI (MDA-N),TGI (OVCAR-3 ovarian),TGI (RXF 393 renal),TGI (UACC-62 melanoma),TGI (MDA-MB-231 breast),TGI (SK-MEL-28 melanoma),TGI (SF-268 CNS)
CC(C)(C)OC(=O)NC(CSSCC(NC(=O)OC(C)(C)C)C(=O)O)C(=O)O (stereo not given),> 100 µM,> 100 µM,> 100 µM,> 100 µM,> 100 µM,> 100 µM,> 100 µM,> 100 µM,> 100 µM,> 100 µM
O=C(O)c1cccc(S(=O)(=O)NN2C(=O)CSC2c2ccc(Cl)cc2Cl)c1 (stereo not given),> 100 µM,> 100 µM,30.2 µM,> 100 µM,> 100 µM,> 100 µM,86.3 µM,> 100 µM,75.8 µM,> 100 µM
O=C1C(=Nc2ccc(Nc3ccccc3)cc2)Oc2ccccc21,4.92 µM,30.5 µM,6.07 µM,7.16 µM,4.42 µM,4.89 µM,10.7 µM,4.51 µM,19.3 µM,9.73 µM
O=C1c2cccc3cccc(c23)C(=O)N1CCCNCCCCNCCCNCCCN1C(=O)c2cccc3cccc(c23)C1=O,> 100 µM,1.42 µM,3.99 µM,2.11 µM,2.12 µM,1.44 µM,1.6 µM,2.36 µM,2.95 µM,0.665 µM
CCOC(=O)/C(C(C)=O)=C(\OC(C)=O)c1ccncc1C(=O)O,> 100 µM,> 100 µM,> 100 µM,> 100 µM,> 100 µM,> 100 µM,> 100 µM,> 100 µM,> 100 µM,> 100 µM
COc1ccc(C(=O)NCCN(C)C)c2nc3ccccc3cc12,11.4 µM,2.55 µM,4.67 µM,4.38 µM,9.93 µM,6.67 µM,4.62 µM,10.9 µM,7.11 µM,9.82 µM
Nc1ncc2c(n1)-c1ccccc1OC2N1CCCC1 (stereo not given),> 100 µM,> 100 µM,> 100 µM,> 100 µM,> 100 µM,> 100 µM,> 100 µM,> 100 µM,> 100 µM,> 100 µM
O=C(CCSC1=NCCCN1)c1ccc(F)cc1,11.6 µM,47.7 µM,> 94.3 µM,32.4 µM,> 68.2 µM,33 µM,32.9 µM,49.1 µM,34.6 µM,67.1 µM
Clc1ccc(C=NC23CC4CC(CC(C4)C2)C3)c(Cl)c1,> 10 µM,> 10 µM,> 10 µM,> 10 µM,> 10 µM,> 10 µM,> 10 µM,> 10 µM,> 10 µM,> 10 µM
Cn1c2ccccc2c2c(=S)c3ccccc3ccc21,> 100 µM,> 100 µM,> 100 µM,> 100 µM,> 100 µM,> 100 µM,> 100 µM,> 100 µM,> 100 µM,> 100 µM
O=[N+]([O-])c1cc2oc(CSc3ccccc3)nc2cc1Cl,> 100 µM,81.2 µM,> 100 µM,> 100 µM,73.9 µM,93 µM,> 100 µM,76.9 µM,> 100 µM,> 100 µM
N#CC(c1ccccc1)N(CCOCCOCCN(C(=O)c1ccccc1)C(C#N)c1ccccc1)C(=O)c1ccccc1 (stereo not given),> 100 µM,> 100 µM,> 100 µM,> 100 µM,> 100 µM,> 100 µM,> 100 µM,> 100 µM,> 100 µM,> 100 µM
C[C@@H]1CCC2[C@@H](C)[C@@H](O[C@H]3O[C@@H]4O[C@@]5(C)CCC6[C@H](C)CCC([C@H]3C)[C@]64OO5)O[C@@H]3O[C@@]4(C)CCC1[C@@]23OO4 (stereo not given in full),> 25 µM,> 25 µM,> 25 µM,> 25 µM,> 25 µM,> 25 µM,> 25 µM,> 25 µM,> 25 µM,> 25 µM
O=c1onc2n1-c1cc(Cl)ccc1C(=S)N1CSCC21 (stereo not given),> 100 µM,> 100 µM,> 100 µM,> 100 µM,> 100 µM,> 100 µM,> 100 µM,> 100 µM,> 100 µM,> 100 µM
CC(C)(C)c1ccc2c(c1)C#Cc1cc3c(cc1OCCCO2)C#Cc1cc(C(C)(C)C)ccc1OCCCO3,> 100 µM,> 100 µM,> 100 µM,> 100 µM,> 100 µM,> 100 µM,> 100 µM,> 100 µM,> 100 µM,> 100 µM
CCN(C(=O)N[C@@H](C)C(=O)N[C@@H](Cc1ccccc1)C(=O)OC)c1ccccc1,> 100 µM,38.4 µM,> 100 µM,> 100 µM,> 100 µM,> 100 µM,> 100 µM,> 100 µM,78.8 µM,> 100 µM
OCCCc1ccc2c(c1)[C@H](CO)[C@@H](c1ccc(O)cc1)O2,> 100 µM,> 100 µM,> 100 µM,> 100 µM,> 100 µM,> 100 µM,> 100 µM,> 100 µM,> 100 µM,> 100 µM
CC(C)(CO)CNc1nc(N)nc(Cl)c1/C=N/O,> 100 µM,> 100 µM,> 100 µM,> 100 µM,> 100 µM,> 100 µM,> 100 µM,> 100 µM,> 100 µM,> 100 µM
